Measured values taken from PubChem BioAssay (NCI).
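Protocol summary: plate cells (96-well), add compound at 5 concentrations, incubate 48 h, interpolate endpoints linearly. GI50 is the concentration that inhibits growth by half. TGI marks complete inhibition of growth.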

What was measured:
Assay in all cases: NCI anticancer screen, dose series, 48 h
[1] = system: SF-295 CNS
[2] = system: RXF 393 renal
[3] = system: OVCAR-8 ovarian
[4] = system: LOX IMVI melanoma
[5] = system: NCI-H226 lung
[6] = system: TK-10 renal
[7] = system: HOP-62 NSCLC
[8] = system: HT29 colon
[9] = system: HCT-15 colon
[10] = system: HL-60(TB) leukemia

SMILES	GI50 [1]	TGI [1]	GI50 [2]	TGI [2]	GI50 [3]	TGI [3]	GI50 [4]	TGI [4]	GI50 [5]	TGI [5]	GI50 [6]	TGI [6]	GI50 [7]	TGI [7]	GI50 [8]	TGI [8]	GI50 [9]	TGI [9]	TGI [10]	GI50 [10]
Oc1ccccc1-c1nn(CNc2ccccc2Cl)c(=S)o1	65.2 µM	> 100 µM	> 100 µM	> 100 µM	> 100 µM	> 100 µM	18.9 µM	35.2 µM	> 100 µM	> 100 µM	42.2 µM	> 100 µM	> 100 µM	> 100 µM	21 µM	63.8 µM	17.9 µM	38.7 µM		
C[C@H]1CCCC(O)C(O)[C@@H]2C[C@H](O[Si](C)(C)C(C)(C)C)C[C@H]2[C@H](O[Si](C)(C)C(C)(C)C)C(O)C(O)C(=O)O1 (stereo not given in full)	32 µM	> 100 µM	31.8 µM	> 100 µM	13.5 µM	37.3 µM					17.2 µM	43.2 µM	11 µM	27.6 µM	62.7 µM	> 100 µM				
N#CNC(N)=Nc1ccc(Cl)cc1		> 100 µM		> 100 µM		> 100 µM		> 100 µM		> 100 µM		> 100 µM		> 100 µM		> 100 µM		> 100 µM		
O=[N+]([O-])c1ccc(-c2ccc(-c3csc(Nc4ccccc4)n3)o2)cc1		> 86.4 µM				40.7 µM		34.8 µM		> 84.1 µM		33.3 µM		> 100 µM		49.7 µM		42.5 µM	13.5 µM	
CCOC(=O)/C(C#N)=C\C=C(/Cl)c1ccc(Cl)cc1	19 µM	38.1 µM	21.6 µM	45.9 µM	19.4 µM	42.1 µM	4.82 µM	18.6 µM	27.4 µM	83.2 µM	16.2 µM	35.2 µM	17.5 µM	35.2 µM	24 µM	> 100 µM	15.1 µM	33.6 µM		
CCC(=O)Nc1nc2c(ncn2C2OC(COC(=O)CC)C(OC(=O)CC)C2OC(=O)CC)c(=O)[nH]1 (stereo not given)		> 100 µM		> 100 µM		> 100 µM		> 100 µM		> 100 µM				> 100 µM		> 100 µM		> 100 µM	> 100 µM	
Cc1ccc(NC(=O)c2cc(S(=O)(=O)N3C(=O)NC(=O)NS3(=O)=O)c(S)cc2Cl)cc1	26.2 µM	55 µM	11.5 µM	54.5 µM	30.7 µM	90.6 µM	20.7 µM	56.1 µM	30.6 µM	76.6 µM	27.8 µM	71.3 µM	33.9 µM	> 100 µM	42.8 µM	> 100 µM	33.2 µM	> 100 µM		
C/C(=N\NC(=O)CC#N)c1c(O)cc(C)oc1=O		> 100 µM				> 100 µM		> 100 µM		> 100 µM		> 100 µM		> 100 µM		> 100 µM		> 100 µM	> 100 µM	
Cc1c(C(=O)O)oc2ccc([N+](=O)[O-])cc12		> 100 µM				> 100 µM		> 100 µM				> 100 µM		> 100 µM		> 100 µM		> 100 µM	> 100 µM	
N/N=C1\C(=O)N(CCc2ccccc2)C(=O)C1C(=O)NCCc1ccccc1 (stereo not given)		> 100 µM						> 100 µM		> 100 µM		> 100 µM				> 100 µM			> 100 µM	
Cc1ccccc1NC(=O)C1C(=O)N(c2ccccc2C)C(=O)/C1=N\NC(N)=S (stereo not given)		> 100 µM						> 100 µM		> 100 µM		> 100 µM				> 100 µM			> 100 µM	
CCCCCCCCCCCCCCCC[N+]1(C)CCOCC1	1.8 µM	6.29 µM			2.53 µM	8.84 µM					1.86 µM	4.17 µM	1.34 µM	3.15 µM	0.766 µM	3 µM	2.55 µM	7.99 µM	3.35 µM	1.31 µM
C=C1C[C@@H]2CC[C@@]34C[C@H]5O[C@H]6[C@@H](O3)[C@H]3O[C@H](CC[C@@H]3O[C@H]6[C@@H]5O4)CC(=O)C[C@@H]3[C@@H](OC)[C@@H](C[C@H](O)CN)O[C@H]3C[C@H]3O[C@@H](CC[C@@H]1O2)C[C@@H](C)C3=C	< 0.01 µM	0.839 µM	< 0.01 µM	> 100 µM	< 0.0153 µM	> 100 µM	< 0.01 µM	0.99 µM			13.9 µM	> 100 µM	< 0.0115 µM	> 100 µM	< 0.01 µM	> 100 µM	0.326 µM	> 100 µM	< 0.0145 µM	< 0.01 µM
Cc1c2ccccc2cc2ccc3oc([N+](=O)[O-])cc3c12		> 100 µM		> 100 µM		> 100 µM		> 100 µM				> 100 µM		> 100 µM		> 100 µM		> 100 µM	> 100 µM	
CSC1=Nc2ccccc2N=C(c2ccc(Cl)cc2)C1		> 100 µM		79.2 µM		> 100 µM		72.1 µM		> 100 µM				> 100 µM		90 µM		> 100 µM	> 100 µM	
Cn1c2c(c3ccccc31)CCN(CCN1CCN(c3cccc(Cl)c3)CC1)C2=O				> 100 µM		> 100 µM		> 100 µM				> 100 µM		> 100 µM		41 µM		> 100 µM	65.3 µM	
CC(=O)c1ccc(O)c(CN(C2CCCCC2)C2CCCCC2)c1O		> 100 µM		> 100 µM		> 100 µM		> 100 µM		> 100 µM		> 100 µM		> 100 µM		> 100 µM		> 100 µM		
CCNC(=O)COc1ccc(Cl)cc1Cl		> 100 µM				> 100 µM				> 100 µM				> 100 µM		> 100 µM		> 100 µM	> 100 µM	
COC(=O)C1(O)CC(=O)CCC1c1ccc(OC)cc1 (stereo not given)		> 100 µM				> 100 µM		> 100 µM		> 100 µM		> 100 µM		> 100 µM		> 100 µM		> 100 µM	> 100 µM	
